{
  "source": "patent US20250326771A1",
  "about": "“PIPERAZINE DERIVATIVES USEFUL IN HIV THERAPY” (VIIV HEALTHCARE COMPANY, priority 2022, published 2025)",
  "key": {"[1]": {"tested_on": "Jurkat HIV-luciferase clones", "test": "Jurkat latency reversal assay", "format": "cell-based", "settings": "Homo sapiens, 48 h; Jurkat latency reversal assay potency; read-out: Jurkat pEC50 (converted)", "method_in_brief": "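Pooled Jurkat clones C16, 115 and N6, each carrying one or two integrated HIV-luciferase proviruses and kept in 500 nM EFV, were exposed to 3-fold, 14-point compound titrations in duplicate (10 μM top, 0.5% DMSO) for 48 h at 37° C. Luciferase luminescence was fitted by four-parameter logistic regression for EC50 and maximal percent activation versus vehicle.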"}, "cIAP1-BIR3": {"target": "cIAP1-BIR3 (Homo sapiens (Human), UniProt Q13490)", "sequence (Q13490 253-363)": "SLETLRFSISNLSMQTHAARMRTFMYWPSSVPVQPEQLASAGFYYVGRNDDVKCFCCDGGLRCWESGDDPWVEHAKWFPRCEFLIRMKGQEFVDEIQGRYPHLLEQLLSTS", "test": "BIR binding assay (FRET competition), cIAP1 BIR3", "settings": "for cIAP1 BIR3 vs BIR2 separation window: fold separation (FS) for cIAP1", "method_in_brief": "(§1)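 Each domain is run separately at its own level: 50 nM cIAP1-BIR3, 100 nM XIAP-BIR3, 325 nM for cIAP1-BIR2 or cIAP2-BIR2. Probe is a 200 nM fluorescent SMAC peptide, and the value is IC50 from FRET competition.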"}, "cIAP1-BIR2": {"target": "cIAP1-BIR2 (Homo sapiens (Human), UniProt Q13490)", "sequence (Q13490 173-257)": "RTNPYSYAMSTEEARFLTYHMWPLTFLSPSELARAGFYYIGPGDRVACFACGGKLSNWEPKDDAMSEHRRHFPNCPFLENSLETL", "test": "BIR binding assay (FRET competition), cIAP1 BIR2", "method_in_brief": "as §1"}, "cIAP2-BIR3": {"target": "cIAP2-BIR3 (Homo sapiens (Human), UniProt Q13489)", "sequence (Q13489 238-349)": "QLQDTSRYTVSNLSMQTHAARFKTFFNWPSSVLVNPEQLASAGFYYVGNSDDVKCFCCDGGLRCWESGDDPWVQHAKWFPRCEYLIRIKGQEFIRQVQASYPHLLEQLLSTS", "test": "BIR binding assay (FRET competition), cIAP2 BIR3", "settings": "for cIAP2 BIR3 vs BIR2 separation window: fold separation (FS) for cIAP2"}, "cIAP2-BIR2": {"target": "cIAP2-BIR2 (Homo sapiens (Human), UniProt Q13489)", "sequence (Q13489 158-242)": "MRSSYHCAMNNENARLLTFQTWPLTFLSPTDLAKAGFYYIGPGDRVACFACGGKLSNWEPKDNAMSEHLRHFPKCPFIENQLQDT", "test": "BIR binding assay (FRET competition), cIAP2 BIR2", "method_in_brief": "as §1"}, "XIAP-BIR3": {"target": "XIAP-BIR3 (Homo sapiens (Human), UniProt P98170)", "sequence (P98170 241-356)": "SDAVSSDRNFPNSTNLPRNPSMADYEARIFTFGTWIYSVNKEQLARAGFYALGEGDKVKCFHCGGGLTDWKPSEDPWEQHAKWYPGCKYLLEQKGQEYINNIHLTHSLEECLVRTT", "test": "BIR binding assay (FRET competition), XIAP BIR3", "settings": "for XIAP BIR3 vs BIR2 separation window: fold separation (FS) for XIAP", "method_in_brief": "as §1"}, "XIAP-BIR2": {"target": "XIAP-BIR2 (Homo sapiens (Human), UniProt P98170)", "sequence (P98170 124-240)": "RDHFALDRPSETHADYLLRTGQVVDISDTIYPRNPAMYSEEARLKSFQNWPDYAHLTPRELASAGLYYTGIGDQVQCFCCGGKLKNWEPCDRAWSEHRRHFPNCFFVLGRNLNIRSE", "test": "BIR binding assay (FRET competition), XIAP BIR2", "settings": "read-out: XIAP BIR2 (pIC50) (converted)", "method_in_brief": "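Compounds in a 15-point, 3-fold series competed with an AlexaFluor647 SMAC peptide (AVPIAQKSE, 200 nM) for 200 nM His-tagged XIAP-BIR2 over 60 min in pH 7.4 HEPES/CHAPS/DTT buffer. Eu-W1024 (2 nM) was then added for 30 min. IC50 and pIC50 were derived from the 615 nm/665 nm emission ratio by variable-slope fit.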"}},
  "note": "Like-named read-outs stand apart in the source and are kept apart here.",
  "data": [
    {"smiles": "C[C@@H]1CN(CC(=O)N2CC(C)(C)c3[nH]c(=O)c(Cc4ccc(F)cc4)cc32)[C@@H](CN2CCC[C@@H](NC(=O)Cc3ccc(CC(=O)N[C@@H]4CCCN(C[C@H]5CN[C@H](C)CN5CC(=O)N5CC(C)(C)c6[nH]c(=O)c(Cc7ccc(F)cc7)cc65)C4)cc3)C2)CN1", "note": "[Example 48, 2,2′-(1,4-phenylene)bis(N-((R)-1-(((2R,5R)-1-(2-(6-(4-fluorobenzyl)-3,3-dimethyl-5-oxo-2,3,4,5-tetrahydro-1H-pyrrolo[3,2-b]pyridin-1-yl)-2-oxoethyl)-5-methylpiperazin-2-yl)methyl)piperidin-3-yl)acetamide)]", "values": [
      {"measurement": "EC50", "setting": "[1]", "result": "316 to 3310", "unit": "nM"},
      {"measurement": "IC50", "setting": "cIAP1-BIR3", "result": "15.8 to 31.6", "unit": "nM"},
      {"measurement": "cIAP1 BIR3 vs BIR2 separation window", "setting": "cIAP1-BIR3", "result": "+++ (10,000>FS>1,000)"},
      {"measurement": "IC50", "setting": "cIAP1-BIR2", "result": "10 to 51.3", "unit": "µM"},
      {"measurement": "IC50", "setting": "cIAP2-BIR3", "result": "15.8 to 31.6", "unit": "nM"},
      {"measurement": "cIAP2 BIR3 vs BIR2 separation window", "setting": "cIAP2-BIR3", "result": "++++ (FS>10,000)"},
      {"measurement": "IC50", "setting": "cIAP2-BIR2", "result": "10 to 51.3", "unit": "µM"},
      {"measurement": "IC50", "setting": "XIAP-BIR3", "result": "15.8 to 31.6", "unit": "nM"},
      {"measurement": "XIAP BIR3 vs BIR2 separation window", "setting": "XIAP-BIR3", "result": "++++ (FS>10,000)"},
      {"measurement": "IC50", "setting": "XIAP-BIR2; FRET competition binding", "result": "10 to 51.3", "unit": "µM"}
    ]},
    {"smiles": "C[C@@H]1CN(CC(=O)N2CC(C)(C)c3[nH]c(=O)c(Cc4ccc(F)cc4)cc32)[C@@H](CN2CCO[C@H](C(=O)N3CCCN(C(=O)[C@@H]4CN(C[C@H]5CN[C@H](C)CN5CC(=O)N5CC(C)(C)c6[nH]c(=O)c(Cc7ccc(F)cc7)cc65)CCO4)CC3)C2)CN1", "note": "[Example 131, 1,1′-(2,2′-((3R,3′R,6R,6′R)-(((2S,2'S)-(1,4-diazepane-1,4-dicarbonyl)bis(morpholine-2,4-diyl))bis(methylene))bis(3-methylpiperazine-6,1-diyl))bis(acetyl))bis(6-(4-fluorobenzyl)-3,3-dimethyl-1,2,3,4-tetrahydro-5H-pyrrolo[3,2-b]pyridin-5-one)]", "values": [
      {"measurement": "EC50", "setting": "[1]", "result": "12.6 to 63.1", "unit": "nM"},
      {"measurement": "IC50", "setting": "cIAP1-BIR3", "result": "31.6 to 501", "unit": "nM"},
      {"measurement": "cIAP1 BIR3 vs BIR2 separation window", "setting": "cIAP1-BIR3", "result": "++ (1,000>FS>100)"},
      {"measurement": "IC50", "setting": "cIAP1-BIR2", "result": "1 to 3.16", "unit": "µM"},
      {"measurement": "IC50", "setting": "cIAP2-BIR3", "result": "7.94 to 15.8", "unit": "nM"},
      {"measurement": "cIAP2 BIR3 vs BIR2 separation window", "setting": "cIAP2-BIR3", "result": "+++ (10,000>FS>1,000)"},
      {"measurement": "IC50", "setting": "cIAP2-BIR2", "result": "1 to 3.16", "unit": "µM"},
      {"measurement": "IC50", "setting": "XIAP-BIR3", "result": "15.8 to 31.6", "unit": "nM"},
      {"measurement": "XIAP BIR3 vs BIR2 separation window", "setting": "XIAP-BIR3", "result": "++++ (FS>10,000)"},
      {"measurement": "IC50", "setting": "XIAP-BIR2; FRET competition binding", "result": "10 to 51.3", "unit": "µM"}
    ]},
    {"smiles": "C[C@@H]1CN(CC(=O)N2CC(C)(C)c3[nH]c(=O)c(Cc4ccc(Cl)cc4C(=O)N(C)C)cc32)[C@@H](CN2CCO[C@H](C(=O)NCc3ccc(CNC(=O)[C@@H]4CN(C[C@H]5CN[C@H](C)CN5CC(=O)N5CC(C)(C)c6[nH]c(=O)c(Cc7ccc(Cl)cc7C(=O)N(C)C)cc65)CCO4)cc3)C2)CN1", "note": "[Compound 172, (2S,2′S)-N,N′-(1,4-phenylenebis(methylene)) bis(4-(((2R,5R)-1-(2-(6-(4-chloro-2-(dimethylcarbamoyl)benzyl)-3,3-dimethyl-5-oxo-2,3,4,5-tetrahydro-1H-pyrrolo[3,2-b]pyridin-1-yl)-2-oxoethyl)-5-methylpiperazin-2-yl)methyl)morpholine-2-carboxamide)]", "values": [
      {"measurement": "EC50", "setting": "[1]", "result": "316 to 3310", "unit": "nM"},
      {"measurement": "IC50", "setting": "cIAP1-BIR3", "result": "7.94 to 15.8", "unit": "nM"},
      {"measurement": "cIAP1 BIR3 vs BIR2 separation window", "setting": "cIAP1-BIR3", "result": "+++ (10,000>FS>1,000)"},
      {"measurement": "IC50", "setting": "cIAP1-BIR2", "result": "10 to 51.3", "unit": "µM"},
      {"measurement": "IC50", "setting": "cIAP2-BIR3", "result": "7.94 to 15.8", "unit": "nM"},
      {"measurement": "cIAP2 BIR3 vs BIR2 separation window", "setting": "cIAP2-BIR3", "result": "++++ (FS>10,000)"},
      {"measurement": "IC50", "setting": "cIAP2-BIR2", "result": "10 to 51.3", "unit": "µM"},
      {"measurement": "IC50", "setting": "XIAP-BIR3", "result": "31.6 to 501", "unit": "nM"},
      {"measurement": "XIAP BIR3 vs BIR2 separation window", "setting": "XIAP-BIR3", "result": "++++ (FS>10,000)"},
      {"measurement": "IC50", "setting": "XIAP-BIR2; FRET competition", "result": "10 to 51.3", "unit": "µM"}
    ]},
    {"smiles": "C[C@@H]1CN(CC(=O)N2CC(C)(C)c3[nH]c(=O)c(Cc4ccc(F)cc4)cc32)[C@@H](CN2CCO[C@H](COCc3c(F)c(F)c(COC[C@@H]4CN(C[C@H]5CN[C@H](C)CN5CC(=O)N5CC(C)(C)c6[nH]c(=O)c(Cc7ccc(F)cc7)cc65)CCO4)c(F)c3F)C2)CN1", "note": "[Example 85, 1,1′-(2,2′-((3R,3′R,6R,6′R)-(((2S,2'S)-((((perfluoro-1,4-phenylene)bis(methylene))bis(oxy))bis(methylene))bis(morpholine-2,4-diyl))bis(methylene))bis(3-methylpiperazine-6,1-diyl))bis(acetyl))bis(6-(4-fluorobenzyl)-3,3-dimethyl-1,2,3,4-tetrahydro-5H-pyrrolo[3,2-b]pyridin-5-one)]", "values": [
      {"measurement": "EC50", "setting": "[1]", "result": "0.49 to 12.6", "unit": "nM"},
      {"measurement": "IC50", "setting": "cIAP1-BIR3", "result": "7.94 to 15.8", "unit": "nM"},
      {"measurement": "cIAP1 BIR3 vs BIR2 separation window", "setting": "cIAP1-BIR3", "result": "+++ (10,000>FS>1,000)"},
      {"measurement": "IC50", "setting": "cIAP1-BIR2", "result": "3.16 to 10", "unit": "µM"},
      {"measurement": "IC50", "setting": "cIAP2-BIR3", "result": "15.8 to 31.6", "unit": "nM"},
      {"measurement": "cIAP2 BIR3 vs BIR2 separation window", "setting": "cIAP2-BIR3", "result": "+++ (10,000>FS>1,000)"},
      {"measurement": "IC50", "setting": "cIAP2-BIR2", "result": "3.16 to 10", "unit": "µM"},
      {"measurement": "IC50", "setting": "XIAP-BIR3", "result": "31.6 to 501", "unit": "nM"},
      {"measurement": "XIAP BIR3 vs BIR2 separation window", "setting": "XIAP-BIR3", "result": "++++ (FS>10,000)"},
      {"measurement": "IC50", "setting": "XIAP-BIR2; FRET competition binding", "result": "10 to 51.3", "unit": "µM"}
    ]}
  ]
}
